In the assay the target is T1, human orexin type 2 receptor (Homo sapiens, UniProt O43614).
T1 construct: expressed in transfected cells
T1 sequence (O43614 1-444): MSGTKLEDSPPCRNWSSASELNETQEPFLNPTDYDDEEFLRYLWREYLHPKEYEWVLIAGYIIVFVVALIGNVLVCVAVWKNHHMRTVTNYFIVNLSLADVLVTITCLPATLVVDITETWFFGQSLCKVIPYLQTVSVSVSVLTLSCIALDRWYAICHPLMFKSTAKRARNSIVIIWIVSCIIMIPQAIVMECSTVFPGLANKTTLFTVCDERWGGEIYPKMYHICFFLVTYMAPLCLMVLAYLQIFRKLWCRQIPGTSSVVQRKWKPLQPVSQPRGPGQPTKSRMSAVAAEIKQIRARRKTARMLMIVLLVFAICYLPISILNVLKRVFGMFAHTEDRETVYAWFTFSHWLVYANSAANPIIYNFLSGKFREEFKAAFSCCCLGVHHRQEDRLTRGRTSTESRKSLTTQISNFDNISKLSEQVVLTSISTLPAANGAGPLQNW
Nature of the assay: Measurement of orexin type 2 receptor agonist activity (calcium indicator fluorescence, CHO cells forcibly expressing human OX2 receptor). Format: cell-based. To be noted: compound at 3 μM; 0% = DMSO, 100% = orexin A (human) 10 nM. An excerpt:
To obtain a cell clone stably expressing human orexin type 2 receptor, human orexin type 2 receptor cDNA was inserted into pcDNA3.1(+) plasmid vector (Invitrogen), and a plasmid DNA for expression of human orexin type 2 receptor (pcDNA3.1(+)/hOX2R) was cloned. The plasmid DNA was introduced into CHO-dhfr cell by an electroporation method, and human orexin type 2 receptor expressing clone cells were obtained by limiting dilution method by using G418 drug resistance as a selection marker.
CHO cells forcibly expressing human OX2 receptor were seeded in each well of 384 well black transparent bottom plate (BD Falcon) at 7,500 cells/well, and cultured for one day in a 5% CO2 incubator at 37° C. After removal of the medium in the cell plate, assay buffer A containing a calcium indicator (HBSS (Thermo Fisher Scientific), 20 mM HEPES (Thermo Fisher Scientific), 0.1% BSA (Sigma-Aldrich), 2.5 μg/mL Fluo-4 AM (DOJINDO Chemical), 0.08% Pluronic F127 (DOJINDO Chemical), 1.25 mM probenecid (DOJINDO Chemical)) was added at 30 μL/well. The plate was stood for 30 min in a 5% CO2 incubator at 37° C., and further stood at room temperature for 30 min. A test compound prepared by diluting with assay buffer B (HBSS, 20 mM HEPES, 0.1% BSA) was added at 10 μL/well, and the fluorescence value was measured by FDSSμCELL (Hamamatsu Photonics K.K.) every one sec for 1 min, and thereafter every two sec for […]. The activity (%) of the test compound was calculated assuming that variation in the fluorescence value when DMSO was added instead of the test compound was 0%, and variation in the fluorescence value when orexin A (human) (PEPTIDE INSTITUTE, INC.) was added at the final concentration of 10 nM was 100%.
Regarding `Cc1cccc(-c2cccc(C[C@H]3[C@@H](NS(=O)(=O)C4CC4)C(F)(F)CN3C(=O)N3CCC3)c2F)c1` [Example 426, N-{(2S,3R)-1-(azetidine-1-carbonyl)-4,4-difluoro-2-[(2-fluoro-3′-methyl[1,1′-biphenyl]-3-yl)methyl]pyrrolidin-3-yl}cyclopropanesulfonamide], the “OX2R agonist activity (3 μM, %)” value came out at 90%.

Take `CC(C)(O)C(=O)N1C[C@H](F)[C@H](NS(=O)(=O)C2CC2)[C@@H]1Cc1cccc(-c2cc(F)cc(F)c2)c1F` [Example 370, N-{(2S,3R,4S)-4-fluoro-1-(2-hydroxy-2-methylpropanoyl)-2-[(2,3′,5′-trifluoro[1,1′-biphenyl]-3-yl)methyl]pyrrolidin-3-yl}cyclopropanesulfonamide]: the “OX2R agonist activity (3 μM, %)” value turned out to be 91%.

On to `CCS(=O)(=O)N[C@@H]1[C@H](Cc2cccc(-c3ccccc3)c2)N(C(=O)C2CCO2)CC1(F)F` (stereo partly drawn) [Example 51, N-[(2S,3R)-2-[([1,1′-biphenyl]-3-yl)methyl]-4,4-difluoro-1-(oxetane-2-carbonyl)pyrrolidin-3-yl]ethanesulfonamide], for which the “OX2R agonist activity (3 μM, %)” value came out at 99%.

In the case of `CCS(=O)(=O)N[C@@H]1[C@H](Cc2cccc(-c3cc(F)cc(F)c3)c2)N(C(=O)C(C)C)CC1(F)F` [Example 116, N-[(2S,3R)-2-[(3′,5′-difluoro[1,1′-biphenyl]-3-yl)methyl]-4,4-difluoro-1-(2-methylpropanoyl)pyrrolidin-3-yl]ethanesulfonamide], the “OX2R agonist activity (3 μM, %)” value came to 86%.

For the compound `CS(=O)(=O)N[C@@H]1[C@H](Cc2cccc(-c3ccccc3)c2F)N(C(=O)C2CC(F)C2)CC1(F)F` (stereo partly drawn) [Example 440, N-[(2S,3R)-4,4-difluoro-2-[(2-fluoro[1,1′-biphenyl]-3-yl)methyl]-1-(3-fluorocyclobutane-1-carbonyl)pyrrolidin-3-yl]methanesulfonamide], the “OX2R agonist activity (3 μM, %)” value amounted to 94%.

Regarding `CCS(=O)(=O)N[C@H]1[C@@H](F)CN(C(=O)C2CC2)[C@H]1Cc1cccc(-c2cc(C)cc(F)c2)c1F` [Example 515, N-{(2S,3R,4S)-1-(cyclopropanecarbonyl)-2-[(2,3′-difluoro-5′-methyl[1,1′-biphenyl]-3-yl)methyl]-4-fluoropyrrolidin-3-yl}ethanesulfonamide], the “OX2R agonist activity (3 μM, %)” value is recorded as 98%.

Turning to `CS(=O)(=O)N[C@H]1[C@@H](F)CN(C(=O)C2CCO2)[C@H]1Cc1cccc(-c2cccc(Cl)c2)c1F` (stereo partly drawn) [Example 328, N-[(2S,3R,4S)-2-[(3′-chloro-2-fluoro[1,1′-biphenyl]-3-yl)methyl]-4-fluoro-1-(oxetane-2-carbonyl)pyrrolidin-3-yl]methanesulfonamide], the “OX2R agonist activity (3 μM, %)” value is 86%.

Turning to `CCS(=O)(=O)N[C@@H]1[C@H](Cc2cccc(-c3cc(F)c(F)c(F)c3)c2F)N(C(=O)C2CCO2)CC1(F)F` (stereo partly drawn) [Example 473, N-{(2S,3R)-4,4-difluoro-1-(oxetane-2-carbonyl)-2-[(2,3′,4′,5′-tetrafluoro[1,1′-biphenyl]-3-yl)methyl]pyrrolidin-3-yl}ethanesulfonamide], the “OX2R agonist activity (3 μM, %)” value amounted to 97%.

Consider `CCS(=O)(=O)N[C@@H]1[C@H](Cc2cccc(-c3cccc(F)c3F)c2F)N(C(=O)N2CCC2)CC1(F)F` [Example 289, N-{(2S,3R)-1-(azetidine-1-carbonyl)-4,4-difluoro-2-[(2,2′,3′-trifluoro[1,1′-biphenyl]-3-yl)methyl]pyrrolidin-3-yl}ethanesulfonamide], for which the “OX2R agonist activity (3 μM, %)” value amounted to 80%.

Regarding `CN(C)S(=O)(=O)N[C@@H]1[C@H](Cc2cccc(-c3cccc(F)c3)c2F)N(C(=O)N2CCC2)CC1(F)F` [Example 547, N′-{(2S,3R)-1-(azetidine-1-carbonyl)-2-[(2,3′-difluoro[1,1′-biphenyl]-3-yl)methyl]-4,4-difluoropyrrolidin-3-yl}-N,N-dimethylsulfuric diamide], the “OX2R agonist activity (3 μM, %)” value is recorded as 98%.

Take `Cc1ccc(F)c(-c2cccc(C[C@H]3[C@@H](NS(=O)(=O)C4CC4)[C@@H](F)CN3C(=O)C3CCO3)c2F)c1` (stereo partly drawn) [Example 492, N-[(2S,3R,4S)-2-[(2,2′-difluoro-5′-methyl[1,1′-biphenyl]-3-yl)methyl]-4-fluoro-1-(oxetane-2-carbonyl)pyrrolidin-3-yl]cyclopropanesulfonamide]: the “OX2R agonist activity (3 μM, %)” value was found to be 90%.

In the case of `CS(=O)(=O)N[C@@H]1[C@H](Cc2cccc(-c3cccc(Cl)c3)c2F)N(C(=O)C2CC2)CC1(F)F` [Example 250, N-[(2S,3R)-2-[(3′-chloro-2-fluoro[1,1′-biphenyl]-3-yl)methyl]-1-(cyclopropanecarbonyl)-4,4-difluoropyrrolidin-3-yl]methanesulfonamide], the “OX2R agonist activity (3 μM, %)” value is 96%.

As for `Cc1cccc(-c2cccc(C[C@H]3[C@@H](NS(=O)(=O)C4CC4)[C@@H](F)CN3C(=O)C3(O)CCC3)c2F)c1` [Example 537, N-[(2S,3R,4S)-4-fluoro-2-[(2-fluoro-3′-methyl[1,1′-biphenyl]-3-yl)methyl]-1-(1-hydroxycyclobutane-1-carbonyl)pyrrolidin-3-yl]cyclopropanesulfonamide], the “OX2R agonist activity (3 μM, %)” value is 100%.

With `CCS(=O)(=O)N[C@H]1[C@@H](F)CN(C(=O)N(C)C)[C@H]1Cc1cccc(-c2cccc(C)c2F)c1F` [Example 408, (2S,3R,4S)-2-[(2,2′-difluoro-3′-methyl[1,1′-biphenyl]-3-yl)methyl]-3-[(ethanesulfonyl)amino]-4-fluoro-N,N-dimethylpyrrolidine-1-carboxamide], the “OX2R agonist activity (3 μM, %)” value worked out at 88%.

Consider `O=C(N1C[C@H](F)[C@H](NS(=O)(=O)C2CC2)[C@@H]1Cc1cccc(-c2cccc(F)c2)c1F)C12CC(C1)C2` [Example 384, N-{(2S,3R,4S)-1-(bicyclo[1.1.1]pentane-1-carbonyl)-2-[(2,3′-difluoro[1,1′-biphenyl]-3-yl)methyl]-4-fluoropyrrolidin-3-yl}cyclopropanesulfonamide], for which the “OX2R agonist activity (3 μM, %)” value came to 98%.

In the case of `CCS(=O)(=O)N[C@H]1[C@@H](F)CN(C(=O)[C@H]2CCCO2)[C@H]1Cc1cccc(-c2cc(F)ccc2F)c1F` [Example 416, N-{(2S,3R,4S)-4-fluoro-1-[(2R)-oxolane-2-carbonyl]-2-[(2,2′,5′-trifluoro[1,1′-biphenyl]-3-yl)methyl]pyrrolidin-3-yl}ethanesulfonamide], the “OX2R agonist activity (3 μM, %)” value was determined as 101%.

As to `CCS(=O)(=O)N[C@@H]1[C@H](Cc2cccc(-c3cccc(F)c3F)c2F)N(C(=O)C2(O)CCC2)CC1(F)F` [Example 274, N-{(2S,3R)-4,4-difluoro-1-(1-hydroxycyclobutane-1-carbonyl)-2-[(2,2′,3′-trifluoro[1,1′-biphenyl]-3-yl)methyl]pyrrolidin-3-yl}ethanesulfonamide], the “OX2R agonist activity (3 μM, %)” value came out at 93%.

On to `O=C(C1CC1)N1C[C@H](F)[C@H](NS(=O)(=O)C2CC2)[C@@H]1Cc1cccc(-c2cccc(F)c2)c1F` [Example 372, N-{(2S,3R,4S)-1-(cyclopropanecarbonyl)-2-[(2,3′-difluoro[1,1′-biphenyl]-3-yl)methyl]-4-fluoropyrrolidin-3-yl}cycloproapnesulfonamide], for which the “OX2R agonist activity (3 μM, %)” value came to 89%.

Take `CCS(=O)(=O)N[C@@H]1[C@H](Cc2cccc(-c3cccc(C)c3F)c2F)N(C(=O)C(C)(C)O)CC1(F)F` [Example 65, N-[(2S,3R)-2-[(2,2′-difluoro-3′-methyl[1,1′-biphenyl]-3-yl)methyl]-4,4-difluoro-1-(2-hydroxy-2-methylpropanoyl)pyrrolidin-3-yl]ethanesulfonamide]: the “OX2R agonist activity (3 μM, %)” value came to 100%.

Take `CC(C)C(=O)N1C[C@H](F)[C@H](NS(C)(=O)=O)[C@@H]1Cc1cccc(-c2cccc(F)c2F)c1F` [Example 314, N-{(2S,3R,4S)-4-fluoro-1-(2-methylpropanoyl)-2-[(2,2′,3′-trifluoro[1,1′-biphenyl]-3-yl)methyl]pyrrolidin-3-yl}methanesufonamide]: the “OX2R agonist activity (3 μM, %)” value is given as 109%.

As for `CCS(=O)(=O)N[C@H]1[C@@H](F)CN(C(=O)C2CCO2)[C@H]1Cc1cccc(-c2ccc(F)c(C)c2)c1F` (stereo partly drawn) [Example 500, N-[(2S,3R,4S)-2-[(2,4′-difluoro-3′-methyl[1,1′-biphenyl]-3-yl)methyl]-4-fluoro-1-(oxetane-2-carbonyl)pyrrolidin-3-yl]ethanesulfonamide], the “OX2R agonist activity (3 μM, %)” value amounted to 98%.

For the origin of these results see patent US20230040770A1, “HETEROCYCLIC COMPOUND AND USE THEREOF” (TAKEDA PHARMACEUTICAL COMPANY LIMITED, priority 2019, published 2023).
